Assay results as given in US20250313556A1, “CERTAIN CHEMICAL ENTITIES, COMPOSITIONS, AND METHODS” (MRJA THERAPEUTICS, INC., priority 2022, published 2025).

Target: c-KIT (Homo sapiens, UniProt P10721)
Test: c-KIT ADP-Glo biochemical assay
Description: The inhibitory activity against c-KIT was measured using ADP-Glo assay. The percent (%) inhibition at each concentration of compound is calculated based on and relative to the luminescence signal in the Max and Min control wells contained within each assay plate. The Max control wells contain enzyme and substrate as 0% inhibition, and the Min control wells only contain substrate without enzyme as 100% inhibition. The concentrations and % inhibition values for tested compounds are plotted and the concentration of compound required for 50% inhibition (IC50) is determined with a four-parameter logistic dose response equation. The ability of the compounds in Table 1 to inhibit c-KIT was determined.

[1] = comparison of prior art compounds (WO 2013/033167) with example 3 (C003)

Chain of c-KIT (P10721 26-976): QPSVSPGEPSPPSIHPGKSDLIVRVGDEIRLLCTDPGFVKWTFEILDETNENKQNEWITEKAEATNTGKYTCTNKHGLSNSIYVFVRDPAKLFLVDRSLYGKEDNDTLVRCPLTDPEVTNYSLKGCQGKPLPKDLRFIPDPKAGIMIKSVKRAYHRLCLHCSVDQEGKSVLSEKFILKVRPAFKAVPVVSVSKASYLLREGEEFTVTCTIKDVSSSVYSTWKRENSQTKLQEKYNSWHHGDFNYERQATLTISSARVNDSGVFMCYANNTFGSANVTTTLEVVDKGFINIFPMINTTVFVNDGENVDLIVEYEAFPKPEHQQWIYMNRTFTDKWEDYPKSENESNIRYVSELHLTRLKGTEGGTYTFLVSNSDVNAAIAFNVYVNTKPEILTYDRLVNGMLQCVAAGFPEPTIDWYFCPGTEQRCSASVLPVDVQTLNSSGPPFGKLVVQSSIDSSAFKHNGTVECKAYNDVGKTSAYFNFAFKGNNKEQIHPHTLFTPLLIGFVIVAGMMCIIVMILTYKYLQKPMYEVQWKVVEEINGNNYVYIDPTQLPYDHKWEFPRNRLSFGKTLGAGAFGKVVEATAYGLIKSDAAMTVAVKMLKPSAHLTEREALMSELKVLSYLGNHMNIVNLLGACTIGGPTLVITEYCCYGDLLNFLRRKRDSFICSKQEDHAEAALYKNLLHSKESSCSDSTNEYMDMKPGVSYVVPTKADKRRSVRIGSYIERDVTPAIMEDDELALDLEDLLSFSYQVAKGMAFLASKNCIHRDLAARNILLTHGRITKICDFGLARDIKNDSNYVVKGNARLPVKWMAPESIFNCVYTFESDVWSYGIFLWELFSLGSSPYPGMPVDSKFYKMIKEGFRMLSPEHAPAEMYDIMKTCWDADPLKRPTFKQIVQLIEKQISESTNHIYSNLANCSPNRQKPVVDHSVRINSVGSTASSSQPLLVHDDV

Structure (SMILES)	IC50 (class ranges)	IC50 [1]
COC(=O)N1CC(c2nc(-c3cc(F)c(C)c(NC(=O)c4cnc5ccc(N6CCOCC6)cn45)c3)no2)C1 [Compound C009, methyl 3-(3-(3-fluoro-4-methyl-5-(6-morpholinoimidazo[1,2-a]pyridine-3-carboxamido)phenyl)-1,2,4-oxadiazol-5-yl)azetidine-1-carboxylate]	100 to 1000 nM	
COC(=O)N1CC(c2nc(-c3cc(F)c(C)c(NC(=O)c4cnc5ccc(F)cn45)c3)no2)C1 [Compound C019, methyl 3-(3-(3-fluoro-5-(6-fluoroimidazo[1,2-a]pyridine-3-carboxamido)-4-methylphenyl)-1,2,4-oxadiazol-5-yl)azetidine-1-carboxylate]	100 to 1000 nM	
COC(=O)N1CC(c2nc(-c3cc(F)c(C)c(NC(=O)c4cnc5cc(C)ccn45)c3)no2)C1 [Compound C017, methyl 3-(3-(3-fluoro-4-methyl-5-(7-methylimidazo[1,2-a]pyridine-3-carboxamido)phenyl)-1,2,4-oxadiazol-5-yl)azetidine-1-carboxylate]	100 to 1000 nM	
COC(=O)N1CC(c2nc(-c3cc(NC(=O)c4cnc5ccccn45)c(C)cc3F)no2)C1 [methyl 3-(3-(2-fluoro-5-(imidazo[1,2-a]pyridine-3-carboxamido)-4-methylphenyl)-1,2,4-oxadiazol-5-yl)azetidine-1-carboxylate, reference compound]		4950 nM
COC(=O)N1CC(c2nnc(-c3cc(F)c(C)c(NC(=O)c4cnc5ccccn45)c3)[nH]2)C1 [Compound C048, methyl 3-(5-(3-fluoro-5-(imidazo[1,2-a]pyridine-3-carboxamido)-4-methylphenyl)-4H-1,2,4-triazol-3-yl)azetidine-1-carboxylate]	100 to 1000 nM	
Cc1c(F)cc(-c2noc(C3CC(F)(F)C3)n2)cc1NC(=O)c1cnc2ccccn12 [Compound C001, N-(5-(5-(3,3-difluorocyclobutyl)-1,2,4-oxadiazol-3-yl)-3-fluoro-2-methylphenyl)imidazo[1,2-a]pyridine-3-carboxamide]	1000 to 20000 nM	
Cc1c(F)cc(-c2noc([C@H]3C[C@@H]3F)n2)cc1NC(=O)c1cnc2ccc(N3CCN(C)CC3)cn12 (racemic) [Compound C034, N-(3-fluoro-5-(5-((1R,2S)-2-fluorocyclopropyl)-1,2,4-oxadiazol-3-yl)-2-methylphenyl)-6-(4-methylpiperazin-1-yl)imidazo[1,2-a]pyridine-3-carboxamide]	100 to 1000 nM	
Cc1c(F)cc(-c2noc(C3CC(F)(F)C3)n2)cc1NC(=O)c1cnc2ccc(N3CCN(C)CC3)cn12 [Compound C033, N-(5-(5-(3,3-difluorocyclobutyl)-1,2,4-oxadiazol-3-yl)-3-fluoro-2-methylphenyl)-6-(4-methylpiperazin-1-yl)imidazo[1,2-a]pyridine-3-carboxamide]	100 to 1000 nM	
Cc1c(F)cc(-c2noc(C3CC(F)(F)C3)n2)cc1NC(=O)c1cnc2cc(N3CCNCC3)ccn12 [Compound C010, N-(5-(5-(3,3-difluorocyclobutyl)-1,2,4-oxadiazol-3-yl)-3-fluoro-2-methylphenyl)-7-(piperazin-1-yl)imidazo[1,2-a]pyridine-3-carboxamide]	100 to 1000 nM	
COC(=O)N1CC(c2nnc(-c3cc(F)c(C)c(NC(=O)c4cnc5ccccn45)c3)o2)C1 [Compound C044, methyl 3-(5-(3-fluoro-5-(imidazo[1,2-a]pyridine-3-carboxamido)-4-methylphenyl)-1,3,4-oxadiazol-2-yl)azetidine-1-carboxylate]	1000 to 20000 nM	
COC(=O)N1CC(c2ncc(-c3cc(F)c(C)c(NC(=O)c4cnc5ccccn45)c3)o2)C1 [Compound C046, methyl 3-(5-(3-fluoro-5-(imidazo[1,2-a]pyridine-3-carboxamido)-4-methylphenyl)oxazol-2-yl)azetidine-1-carboxylate]	1000 to 20000 nM	
COC(=O)N1CC(c2nc(-c3cc(F)c(C)c(NC(=O)c4cnc5cc(Cl)ccn45)c3)no2)C1 [Compound C016, methyl 3-(3-(3-(7-chloroimidazo[1,2-a]pyridine-3-carboxamido)-5-fluoro-4-methylphenyl)-1,2,4-oxadiazol-5-yl)azetidine-1-carboxylate]	100 to 1000 nM	

The remaining lines, values ahead:

IC50 (class ranges)	IC50 [1]	Structure (SMILES)
100 to 1000 nM		CC(=O)N1CCN(c2ccn3c(C(=O)Nc4cc(-c5noc(C6CC(F)(F)C6)n5)cc(F)c4C)cnc3c2)CC1 [Compound C018, 7-(4-acetylpiperazin-1-yl)-N-(5-(5-(3,3-difluorocyclobutyl)-1,2,4-oxadiazol-3-yl)-3-fluoro-2-methylphenyl)imidazo[1,2-a]pyridine-3-carboxamide]
1000 to 20000 nM		Cc1c(F)cc(-c2noc(C3CC(F)(F)C3)n2)cc1NC(=O)c1cnn2ccccc12 [Compound C004, N-(5-(5-(3,3-difluorocyclobutyl)-1,2,4-oxadiazol-3-yl)-3-fluoro-2-methylphenyl)pyrazolo[1,5-a]pyridine-3-carboxamide]
100 to 1000 nM		Cc1c(F)cc(-c2noc(C3CC(F)(F)C3)n2)cc1NC(=O)c1cnc2ccc(N3CCNCC3)cn12 [Compound C025, N-(5-(5-(3,3-difluorocyclobutyl)-1,2,4-oxadiazol-3-yl)-3-fluoro-2-methylphenyl)-6-(piperazin-1-yl)imidazo[1,2-a]pyridine-3-carboxamide]
100 to 1000 nM		COC(=O)N1CC(c2nc(-c3cc(F)c(C)c(NC(=O)c4cnc5ccc(Cl)cn45)c3)no2)C1 [Compound C012, methyl 3-(3-(3-(6-chloroimidazo[1,2-a]pyridine-3-carboxamido)-5-fluoro-4-methylphenyl)-1,2,4-oxadiazol-5-yl)azetidine-1-carboxylate]
100 to 1000 nM		Cc1c(F)cc(-c2noc(C3CC(F)(F)C3)n2)cc1NC(=O)c1cnc2cc(N3CCOCC3)ccn12 [Compound C013, N-(5-(5-(3,3-difluorocyclobutyl)-1,2,4-oxadiazol-3-yl)-3-fluoro-2-methylphenyl)-7-morpholinoimidazo[1,2-a]pyridine-3-carboxamide]
100 to 1000 nM		Cc1c(F)cc(-c2noc([C@H]3C[C@H]3F)n2)cc1NC(=O)c1cnn2ccccc12 (racemic) [Compound C005]
1000 to 20000 nM		CNC(=O)N1CC(c2nc(-c3cc(F)c(C)c(NC(=O)c4cnc5ccccn45)c3)no2)C1 [Compound C032, N-(3-fluoro-2-methyl-5-(5-(1-(methylcarbamoyl)azetidin-3-yl)-1,2,4-oxadiazol-3-yl)phenyl)imidazo[1,2-a]pyridine-3-carboxamide]
	172 nM	COC(=O)N1CC(c2nc(-c3ccc(C)c(NC(=O)c4cnc5ccccn45)c3)no2)C1 [methyl 3-(3-(3-(imidazo[1,2-a]pyridine-3-carboxamido)-4-methylphenyl)-1,2,4-oxadiazol-5-yl)azetidine-1-carboxylate, reference compound]
≤ 100 nM		COC(=O)N1CC(c2nc(-c3cc(F)c(C)c(NC(=O)c4cnc5cc(N6CCOCC6)ccn45)c3)no2)C1 [Compound C015, methyl 3-(3-(3-fluoro-4-methyl-5-(7-morpholinoimidazo[1,2-a]pyridine-3-carboxamido)phenyl)-1,2,4-oxadiazol-5-yl)azetidine-1-carboxylate]
100 to 1000 nM		Cc1c(F)cc(-c2noc([C@H]3C[C@@H]3F)n2)cc1NC(=O)c1cnc2ccc(N3CCNCC3)cn12 (racemic) [Compound C026, N-(3-fluoro-5-(5-((1R,2S)-2-fluorocyclopropyl)-1,2,4-oxadiazol-3-yl)-2-methylphenyl)-6-(piperazin-1-yl)imidazo[1,2-a]pyridine-3-carboxamide]
100 to 1000 nM		Cc1c(F)cc(-c2noc([C@H]3C[C@@H]3F)n2)cc1NC(=O)c1cnc2cc(N3CCOCC3)ccn12 [Compound C014, N-(3-fluoro-5-(5-((1R,2S)-2-fluorocyclopropyl)-1,2,4-oxadiazol-3-yl)-2-methylphenyl)-7-morpholinoimidazo[1,2-a]pyridine-3-carboxamide]
≤ 100 nM		CC(=O)N1CCN(c2ccc3ncc(C(=O)Nc4cc(-c5noc([C@H]6C[C@@H]6F)n5)cc(F)c4C)n3c2)CC1 (racemic) [Compound C039, 6-(4-acetylpiperazin-1-yl)-N-(3-fluoro-5-(5-((1R,2S)-2-fluorocyclopropyl)-1,2,4-oxadiazol-3-yl)-2-methylphenyl)imidazo[1,2-a]pyridine-3-carboxamide]
1000 to 20000 nM		COC(=O)N1CC(c2nc(-c3cc(F)c(C)c(NC(=O)c4cnc5cc(C#N)ccn45)c3)no2)C1 [Compound C035, methyl 3-(3-(3-(7-cyanoimidazo[1,2-a]pyridine-3-carboxamido)-5-fluoro-4-methylphenyl)-1,2,4-oxadiazol-5-yl)azetidine-1-carboxylate]
≤ 100 nM		Cc1c(F)cc(-c2noc(C3CN(C(=O)OCCN)C3)n2)cc1NC(=O)c1cnc2ccccn12 [Compound C041, 2-aminoethyl 3-(3-(3-fluoro-5-(imidazo[1,2-a]pyridine-3-carboxamido)-4-methylphenyl)-1,2,4-oxadiazol-5-yl)azetidine-1-carboxylate]
100 to 1000 nM		COC(=O)N1CC(c2nc(-c3cc(F)c(C)c(NC(=O)c4cnc5ccc(N6CCN(C)CC6)cn45)c3)no2)C1 [Compound C028, methyl 3-(3-(3-fluoro-4-methyl-5-(6-(4-methylpiperazin-1-yl)imidazo[1,2-a]pyridine-3-carboxamido)phenyl)-1,2,4-oxadiazol-5-yl)azetidine-1-carboxylate]
1000 to 20000 nM		COC(=O)N1CC(c2nc(-c3cc(F)c(C)c(NC(=O)c4cnc5ccc(N6CCNCC6)cn45)c3)no2)C1 [Compound C020, methyl 3-(3-(3-fluoro-4-methyl-5-(6-(piperazin-1-yl)imidazo[1,2-a]pyridine-3-carboxamido)phenyl)-1,2,4-oxadiazol-5-yl)azetidine-1-carboxylate]
